# Reference: US4636498A, “Formulation of antiinflammatory drugs” (Pfizer Inc., priority 1985, dated 1987)
# Several values for one entry are separate records, joined by “and”; a condition that tells them apart may be missing. Identical values can stand only once. Counter-ions that a name gives are not always drawn. Like-named read-outs stand apart in the source and are kept apart here.
# How the values were obtained:
# [1] = system: indomethacin-induced gastric lesions; assay: Prevention of indomethacin-induced gastric lesions in rats; format: in vivo, rat (male, CD strain); settings: for ED50: Rattus norvegicus, po, mg/kg of free base, read-out: ID50 (the source's name)
# Text: Rats for testing were ordered to arrive the week before being tested, and acclimated that first week. Male, CD strain rats were used. By ordering at 100-125 grams, body weights during the second week generally ranged from 150-200 grams. Rats were fasted the day before the test, with food removed from the gang cages no later than 4 p.m. Following an overnight fast a loss of 15-20 grams body weight was anticipated, so volumes of test solutions required for the following day could be estimated. Water was allowed ad lib overnight and during the test itself. On the test day both oral and intraperitoneal dosing was done with volumes of 4.0 ml/kg. Therefore, by knowing approximate body weights (and therefore required volumes) as well as drug doses (mg/kg) to be used, the amount of antiulcer drug and indomethacin needed was determined and preweighed into test tubes the day before the test. The antiulcer drugs to be tested, in the form of their dihydrochloride salts, were put into solution or suspended. Distilled water was normally the vehicle used. Indomethacin was suspended in saline and homogenized with a small drop of Tween 80 (polysorbate 80) to prevent aggregation of particles. The indomethacin will not stay suspended in the saline, and it is critical that the test tube be well vortexed and the drug resuspended before each dose is drawn into a syringe. A random sample of the rats to be tested (usually about 20% of the total test group) was used to determine average body weight of the group. […] The rats were removed from the gang cage, given the test drug or vehicle p.o., and placed in individual cages. The timing of antiulcer drug dosing relative to the indomethacin challenge varied depending on the specific protocol used. As a typical test consisted of 7 groups of 7 rats each, a predose time of 45 minutes was conveniently used. This allowed about one minute to orally dose each rat. Indomethacin was administered i.p. after the predose time had elapsed. In the typical test mentioned above, this required going back to the first rat and beginning indomethacin injections as soon as the drug dosing was completed. To keep the predose time consistent, rats were also given the indomethacin at a rate of about one per minute. If the test compound was not expected to have a long duration of action, it was desirable to administer a second dose of antiulcer drug during the test. The typical time between indomethacin administration and sacrifice is 6.5 hours. […] Of course, control animals were also dosed with vehicle at this time. The rats were sacrificed 6.5 hours after administration of the indomethacin. The stomachs were excised, opened along the greater curvature, and rinsed under running water. Lightly rubbing the mucosa while holding it in the stream of water helped to remove some mucus and large clots of blood, but vigorous rubbing was avoided as it may dislodge blood from the indomethacin-induced hemorrhagic erosions, making the erosions extremely difficult to see. Next the stomachs were placed flat, mucosa side up, on a tray covered with saline-soaked towels. The lesions were then counted, or the stomachs held overnight for examination the following day. If they were stored overnight, the stomachs were first moistened with saline and placed in a polyethylene bag and in a refrigerator. The indomethacin-induced gastric lesions usually appeared as dark brown or black colored erosions in the corpus (the acid-secreting portion) of the stomach. The dark coloration is caused by the action of the gastric acid on blood within the erosion. Lesions were either punctate or linear in nature. Quantitative determination of lesion size has shown that the average lesion length is about 1 mm. Regardless of size, each individual lesion was counted as one. However, if one group of animals obviously had lesions of a different nature than the controls, this fact was recorded. […]
# [2] = system: piroxicam-induced gastric lesions; assay: Piroxicam-induced gastric lesions in rats; format: in vivo, rat (male, CD strain, Sprague-Dawley)
# Protocol: Adult male "specific pathogen free" rats weighing 140-160 grams of the CD strain (Sprague-Dawley) were obtained from Charles River Breeding Laboratories (Kingston, N.Y.). The animals were acclimated for approximately one week and tested when they reached a body weight of 200-225 grams. The rats were fasted for 16 hours and randomized into groups consisting of 8 to 10 animals which were normalized with regard to their average body weight. Gastric ulcers were induced in the animals by orally dosing the animals with a single 100 mg/kg dose of piroxicam solution containing the drug dissolved in 2 ml 0.1% methylcellulose in water (pH=6.8). Those animals receiving 2-guanidino-4-(2-methyl-4-imidazolyl)thiazole (0.3, 1.0, 3.3 or 10.0 mg/kg as the dihydrochloride salt) separately received that drug, dissolved in an additional 2 ml of the same medium, at about the same time. Six and one-half hours later, the animals were sacrificed by cervical dislocation and autopsied. The stomachs were surgically removed, dissected along the greater curvature and rinsed with cold water. The stomachs were individually scored for both linear and punctate lesions. The total number of lesions was used for scoring purposes. The data obtained from each group of rats was analyzed after calculation of the mean number +/- the standard error of total gastric lesions. […]
# [3] = system: gastric lesions induced by the ethanolamine salt of piroxicam; assay: Gastric lesions in rats induced by the ethanolamine salt of piroxicam; format: in vivo, rat; settings: for ED50: Rattus norvegicus, po, 6.5 h, linear regression analyses
# Protocol: Adult male "specific pathogen free" rats weighing 140-160 grams of the CD strain (Sprague-Dawley) were obtained from Charles River Breeding Laboratories (Kingston, N.Y.). The animals were acclimated for approximately one week and tested when they reached a body weight of 200-225 grams. The rats were fasted for 16 hours and randomized into groups consisting of 8 to 10 animals which were normalized with regard to their average body weight. Gastric ulcers were induced in the animals by orally dosing the animals with a single 100 mg/kg dose of piroxicam solution containing the drug dissolved in 2 ml 0.1% methylcellulose in water (pH=6.8). Those animals receiving 2-guanidino-4-(2-methyl-4-imidazolyl)thiazole (0.3, 1.0, 3.3 or 10.0 mg/kg as the dihydrochloride salt) separately received that drug, dissolved in an additional 2 ml of the same medium, at about the same time. Six and one-half hours later, the animals were sacrificed by cervical dislocation and autopsied. The stomachs were surgically removed, dissected along the greater curvature and rinsed with cold water. The stomachs were individually scored for both linear and punctate lesions. The total number of lesions was used for scoring purposes. The data obtained from each group of rats was analyzed after calculation of the mean number +/- the standard error of total gastric lesions. The values obtained were also compared to the controls which received only piroxicam by the two-tailed Student's t-test for nonpaired data.
# According to the preceding Example, gastric ulcers were induced by a single dose of 100 mg of the ethanolamine salt of piroxicam. Test groups received 0.3, 1.0 and 3.3 mg/kg doses of 2-guanidino-4-(2-methyl-4-imidazolyl)thiazole.
# This test was repeated, using 120 mg of the ethanolamine salt of piroxicam to induce ulcers.
# According to Examples 2 and 3, gastric ulcers were induced by a single dose of 120 mg of the ethanolamine salt of piroxicam. Test groups received 0.03, 0.10 and 0.33 mg/kg doses of 2-(N-pentyl-N'-guanidino)-4-(2-methyl-4-imidazolyl)thiazole dihydrochloride.
# [4] = system: adjuvant-induced arthritis; assay: Adjuvant-induced arthritis in the rat (inhibition of paw edema); format: in vivo, rat (male Wistar-Lewis); settings: for % Inhibition of Lesions, Primary: day 4, injected paw; for % Inhibition of Lesions, Secondary: day 16, non-injected paw; for ED50: Rattus norvegicus, po, piroxicam alone, linear regression analysis
# Protocol: Adjuvant arthritis was induced in adult male Wistar-Lewis rats weighing 250-270 grams each (Charles River Breeding Laboratories, Kingston, N.Y.) by a single subplantar injection of 1 mg of Mycobacterium butyricum (Difco Laboratories, Lot #0640-33) suspended in 0.1 ml mineral oil as described by Walz et al. (Proc. Soc. Exptl. Biol. Med., 136: 907-910, 1971). Seven rats were used in each group. Orally administered drugs were dissolved in water and dilute sodium hydroxide was added as necessary to ensure solution; control groups received only water. After neutralization of the solutions to pH 7.0, a volume of 10 ml/kg body weight was given by intubation with a blunt end, 18-gauge needle. Doses of each drug were given daily starting 1 day before the injection of adjuvant and continuing until 16 days after the induction of the arthritic lesion.
# The initial hindpaw volumes (Vi) were measured on the day of adjuvant injection and the resultant swelling was determined on the injected paw (Vf - Vi) on the 4th day following the adjuvant injection. This was considered to be the primary response or lesion. The swelling (Vf - Vi) measured 16 days after adjuvant injection on the contralateral, non-injected hindpaw constituted the secondary response or lesion. The rats were weighed at the start of the experiments as well as 4 and 16 days after the induction of the disease. Percent inhibition of edema was calculated according to the following formula: [formula] […] This shift represents a 5 fold increase in the potency of piroxicam.
# [5] = system: ethanol-induced ulcers; assay: Inhibition of ethanol-induced ulceration in rats; format: in vivo, rat (male); settings: as dihydrobromide salt
# Protocol: The antiulcer activity of the products of Examples 9 and 10 was also determined by an ethanol-induced rat ulcer assay. In this test, overnight fasted male rats are given drug (at 30 or 3 mg/kg) or water orally fifteen minutes prior to an orally administered dose of absolute ethanol (1.0 ml). One hour after the ethanol challenge the animals (8/group) are killed and the stomachs examined for the presence of lesions. After sacrifice the abdomen is opened and a locking hemostat placed at the pylorus. Six ml of a 4% solution of formaldehyde was injected into the stomach with a gastric feeding tube and a second locking hemostat was used to seal the esophagus. The stomach was removed, opened along the greater curvature and examined for ulceration.
# The scoring system used to quantitate the ethanol-induced lesions is given below.
# For each group of animals an ulcer index is calculated as follows: [formula]
# The percentage inhibition of ulcers is calculated as follows: [formula]
# [6] = particularly with indomethacin; cited from earlier work
# [7] = Compound A oral dose 10.0 mg/kg
smiles,measurement,setting,value
"Cc1nc(-c2csc(NC(=N)N)n2)c[nH]1.Cl.Cl [Compound A, 2-Guanidino-4-(2-methyl-4-imidazolyl)thiazole Dihydrochloride]",ED50,"[1]; single drug dose, obtained by extrapolation",1.4 mg/kg
same,ED50,"[1]; two drug doses, obtained by extrapolation",1.5 mg/kg
same,Reduction in lesion number,"[1]; lowest dose tested, 2.2 mg/kg",63%
same,Reduction of piroxicam-induced gastric lesions (in words),[2]; 0.3-10 mg/kg p.o.,significantly reduced piroxicam-induced gastric lesions
same,ED50,"[2]; Rattus norvegicus, po, 6.5 h, linear regression analyses, piroxicam 100 mg/kg",0.32 mg/kg
same,Reduction in gastric lesions induced by the ethanolamine salt of piroxicam (in words),"[3]; 0.3-3.3 mg/kg, piroxicam ethanolamine salt 100 mg",significant reduction in gastric lesions
same,ED50,[3]; piroxicam ethanolamine salt 100 mg,0.88 mg/kg
same,ED50,[3]; piroxicam ethanolamine salt 120 mg,0.3 mg/kg
same,"% Inhibition of Lesions, Primary",[4]; Compound A oral dose 1.0 mg/kg,0 (6) %
same,"% Inhibition of Lesions, Secondary",[4]; Compound A oral dose 1.0 mg/kg,3 (3) %
same,"% Inhibition of Lesions, Primary",[4]; Compound A oral dose 3.3 mg/kg,0 (3) %
same,"% Inhibition of Lesions, Secondary",[4]; Compound A oral dose 3.3 mg/kg,28 (4) %
same,"% Inhibition of Lesions, Primary",[4]; [7],2 (2) %
same,"% Inhibition of Lesions, Secondary",[4]; [7],27 (3) %
same,Activity against secondary lesions (in words),[4]; compound alone,significant activity against secondary lesions
same,Activity for primary lesions (in words),[4]; compound alone,no significant activity
same,ED50 against secondary lesions (in words),[4]; compound alone,no reliable ED50 could be extrapolated
"CCCCCCNc1nc(-c2csc(NC(=N)N)n2)c[nH]1 [Compound B, 2-Guanidino-4-(2-hexylamino-4-imidazolyl)thiazole]",ED50,[1]; two drug doses,10.5 mg/kg
"Cc1nc(-c2csc(N=C(N)NCc3ccccc3)n2)c[nH]1 [Compound C, 2-(N-Benzyl-N'-guanidino)-4-(2-methyl-4-imidazolyl)thiazole Dihydrochloride]",ED50,[1]; two drug doses,4.4 mg/kg
same,Inhibition of ethanol-induced ulceration,[5]; oral dose 3 mg/kg,at least 40%
same,Inhibition of ethanol-induced ulceration,[5]; oral dose 30 mg/kg,at least 77%
"N=C(N)Nc1nc(-c2c[nH]cn2)cs1 [Compound D, 2-guanidino-4-(4-imidazolyl)thiazole]",ED50,[1]; single drug dose,7.5 mg/kg
same,ED50,[1]; two drug doses,2 mg/kg
"CCCCCNC(N)=Nc1nc(-c2c[nH]c(C)n2)cs1 [Example 10, 4-(2-Methyl-4-imidazolyl)-2-(N-pentyl-N'-guanidino)thiazole Dihydrochloride]",Reduction in gastric lesions induced by the ethanolamine salt of piroxicam (in words),"[3]; Example 13, 0.03-0.33 mg/kg",significant reduction in gastric lesions
same,ED50,"[3]; Example 13, piroxicam ethanolamine salt 120 mg",0.1 mg/kg
same,Inhibition of ethanol-induced ulceration,[5]; oral dose 3 mg/kg,at least 40%
same,Inhibition of ethanol-induced ulceration,[5]; oral dose 30 mg/kg,at least 77%
CN1C(C(=O)Nc2ccccn2)=C(O)c2ccccc2S1(=O)=O [Piroxicam],ED50,"[4]; 96 h, read-out: ED50 against primary lesions",2.6 mg/kg
same,ED50,"[4]; 384 h, read-out: ED50 against secondary lesions",0.45 mg/kg
same,"% Inhibition of Lesions, Primary",[4]; piroxicam oral dose 0.10 mg/kg,29 (4) %
same,"% Inhibition of Lesions, Secondary","[4]; piroxicam oral dose 0.10 mg/kg, 0.1 mg/kg",26 (2) % and 26%
same,"% Inhibition of Lesions, Primary",[4]; piroxicam oral dose 0.33 mg/kg,33 (8) %
same,"% Inhibition of Lesions, Secondary","[4]; piroxicam oral dose 0.33 mg/kg, 0.33 mg/kg",43 (4) % and 43%
same,"% Inhibition of Lesions, Primary",[4]; piroxicam oral dose 1.00 mg/kg,45 (7) %
same,"% Inhibition of Lesions, Secondary","[4]; piroxicam oral dose 1.00 mg/kg, 1 mg/kg",64 (3) % and 64%
N[C@@](CF)(Cc1c[nH]cn1)C(=O)O [alphafluoromethylhistidine],Antiinflammatory activity (in words),[6],synergistic antiinflammatory activity
